Assay results reported in patent US11124779B2, “Compositions and methods for treating and preventing pancreatitis, renal injury and cancer” (Yale University, priority 2014, dated 2021).
Where a SMILES comes first, the peptide text is derived from it. Where no end group is shown, it is not given here.

Legend:
[1] = tested on: p38 MAPK; test: MAPK signaling by immunoblot: p38 phosphorylation in HK-2 cells; assay type: cell-based, human; details: cisplatin alone, 1-60 min
Text: (§1) FIGS. 2A-2C, depict how RP-220 alters the pattern of MAPK activation in cisplatin treated cells. FIG. 2A is an image of a gel depicting MAPK phosphorylation with cisplatin alone (CP) and with CP and RP-220; representative study: p-p38: phosphorylated p38 MAPK; p-ERK: phosphorylated ERK. FIG. 2B is a graph depicting quantification of ERK activation. Signals were normalized to glyceraldehyde 3-phosphate dehydrogenase (GAPDH) loading control; n=3, *=P<0.05. FIG. 2C is a graph depicting quantification of p38 activation, signals normalized to GAPDH loading control; n=3, *=P<0.05.
(§2) FIGS. 5A-5E, depict how PMCA4b inhibition abrogates renalase peptide mediated MAPK signaling and cytoprotection. […] is a series of panels depicting how PMCA4b inhibition abrogates RP-220 mediated ERK and p38 signaling in HK-2 cells; caloxin1b=peptide inhibitor of PMCA4; left panel: RP-220 mediated ERK and p38 activation, phospho=phosphorylated, representative blot; middle panel: inhibition of RP-220 mediated ERK and p38 activation by caloxin1b (100 μM); right panel: quantification of phosphorylated p38 (P-p38) and phosphorylated ERK (p-ERK); signals were normalized to glyceraldehyde 3-phosphate dehydrogenase (GAPDH) loading control; n=3, *=P<0.05. […]

[2] = tested on: ERK; test: MAPK signaling by immunoblot: ERK phosphorylation in HK-2 cells; assay type: cell-based, human; details: cisplatin alone, 1-60 min
Text: as §1, §2

[3] = tested on: HK-2 cells; test: In vitro model of cisplatin toxicity: HK-2 cell survival by the WST-1 method; assay type: cell-based, human
Protocol: FIG. 1B is a graph depicting the effect of renalase peptides on survival of HK-2 cells exposed to 20 μM cisplatin for 24 hrs; cell survival is depicted as % change in survival compared to that in cisplatin-treated HK-2 cells without renalase peptides; cell survival was measured by the WST-1 method; RP-A220: mutated RP-220, and RP-19 and RP-128: control peptides; peptide concentration (μg/ml) indicated in top line; n=4, *=p<0.05. […]
HK-2 cells (human proximal tubular line) obtained from ATTC (Manassas, Va., USA) were cultured in DMEM/F12 supplemented with glutamine, 10% FBS and antibiotics, and were maintained at 37° C. in 5% CO2. Cells were exposed to cisplatin (20 μM) in the presence or absence of recombinant renalase or renalase peptides for 24 hrs, and cell viability was assessed by the WST1 method (Roche Applied Science, Germany).

[4] = tested on: HK-2 cells; details: Wang et al., 2014; cited from earlier work
[5] = tested on: MAPK signaling; details: Wang et al., 2014; cited from earlier work
[6] = tested on: HK-2 cells; test: In vitro model of cisplatin toxicity: HK-2 cell survival by the WST-1 method; assay type: cell-based, human; details: control conditions, no cisplatin
[7] = 20 μM cisplatin, 24 hrs, WST-1, range of peptide concentrations

With `N.N.[Cl][Pt][Cl]` [Cisplatin, cisplatin] the p38 phosphorylation [1] was “modestly increased” and the ERK phosphorylation [2] was “modestly increased”.

In the case of `CC[C@H](C)[C@H](NC(=O)[C@H](CCC(=O)O)NC(=O)[C@H](CO)NC(=O)[C@H](CO)NC(=O)[C@H](CCC(=O)O)NC(=O)[C@@H](NC(=O)[C@H](CC(N)=O)NC(=O)[C@H](CCCNC(=N)N)NC(=O)[C@H](CCCCN)NC(=O)[C@H](CCCCN)NC(=O)[C@H](CC(N)=O)NC(=O)[C@H](CC(=O)O)NC(=O)[C@@H](NC(=O)[C@H](CO)NC(=O)[C@@H](NC(=O)[C@H](Cc1ccccc1)NC(=O)[C@H](CCCNC(=N)N)NC(=O)[C@@H](NC(=O)[C@H](CS)NC(C)=O)[C@@H](C)CC)C(C)C)[C@@H](C)CC)[C@@H](C)CC)C(=O)NCC(=O)O` [RP-220] (Ac-CIRFVSIDNKKRNIESSEIG-OH), the “protective effect against cisplatin cytotoxicity after down-regulation of PMCA4b expression” value ([3]; HK-2 cells, PMCA4b siRNA, 20 μM cisplatin 24 hrs, peptide 15 μg/ml) is reported as “abrogated” and the “relative potency at protecting HK-2 cells against cisplatin cytotoxicity (concentration dependent effects)” value ([3]; dose response curve, 20 μM cisplatin, 24 hrs) is reported as “equipotent”.

For “RP-128: control renalase peptide, SEQ ID NO: 2, FRHRVTQINLRDDKWEVSKQ, acetylated at the amino terminus (Ac-FRHRVTQINLRDDKWEVSKQ; listed as Homo sapiens)”, the “survival of HK-2 cells exposed to cisplatin (protective effect)” value (“survival of HK-2 cells exposed” for short) [3, 7] was “did not improve cell survival”.

With “RP-19: control renalase peptide, SEQ ID NO: 1, LLRRQTSGPLYLAVWDKAED, acetylated at the amino terminus (Ac-LLRRQTSGPLYLAVWDKAED; listed as Homo sapiens)” the “survival of HK-2 cells exposed” value [3, 7] was “did not improve cell survival”.

In the case of “RP-Scr220: scrambled RP-220 control peptide, SEQ ID NO: 7, CSKRIFKVISSIEDNNERG (listed as Homo sapiens)”, the protection of cells [4] is given as “failed to protect cells” and the “activation of MAPK signaling” value [5] is given as “did not activate MAPK signaling”.

With `C[S+]([O-])c1ccc(-c2nc(-c3ccncc3)c(-c3ccc(F)cc3)[nH]2)cc1` (stereo not shown) [SB203580, 4-[4′-Fluorophenyl]-2-[4′-methylsulfinylphenyl]-5-[4′-pyridyl]-imidazole, reference compound] the “effect of kinase inhibitor on protection by RP-220 against cisplatin” value ([3]; HK-2 cells, 20 μM cisplatin 24 hrs plus RP-220, SB203580 10 μM) was “completely abrogated” and the “survival of HK-2 cells with inhibitor alone” value [6] was “did not adversely affect the survival”.

With “RP-224: renalase peptide, SEQ ID NO: 3, CVSIDNKKRNI, acetylated at the amino terminus (Ac-CVSIDNKKRNI; listed as Homo sapiens)” the “survival of HK-2 cells exposed” value ([3]; 20 μM cisplatin, 24 hrs, test substance 100 μg/ml) was “protected HK-2 cells to a similar degree”.

For “RP-A220: mutated RP-220, SEQ ID NO: 6, IRFVSIDNAAANIESSEIG (listed as Homo sapiens)”, the “survival of HK-2 cells exposed” value [3, 7] was “did not improve cell survival” and the “survival of HK-2 cells exposed” value ([3]; 20 μM cisplatin, 24 hrs, test substance 80 μg/ml) was “exacerbated cisplatin toxicity”.
